Laboratory results as given in patent US11084800B2 (Achillion Pharmaceuticals, Inc., priority 2017, dated 2021).

These molecules were tested against Human Factor D (Homo sapiens (Human), UniProt P00746) (assay: Human Factor D Assay). Conditions: Table 6; Factor D 80 nM, substrate Z-L-Lys-SBz; read-out: IC50.
Chain of Human Factor D (P00746 26-253): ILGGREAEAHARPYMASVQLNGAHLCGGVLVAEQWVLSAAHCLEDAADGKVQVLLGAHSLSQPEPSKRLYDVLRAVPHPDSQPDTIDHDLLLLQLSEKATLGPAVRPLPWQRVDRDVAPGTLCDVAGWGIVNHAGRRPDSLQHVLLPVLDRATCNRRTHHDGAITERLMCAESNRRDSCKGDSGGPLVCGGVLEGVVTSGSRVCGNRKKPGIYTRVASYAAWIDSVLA
Format: biochemical
Outline: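 Serum-purified Factor D (80 nM final) preincubated 5 min at room temperature with compound in 50 mM Tris, 1 M NaCl, pH 7.5. Z-L-Lys-SBz and DTNB added at 100 μM each; A405 followed every 30 s for 30 min. IC50 from nonlinear regression of rates versus concentration.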
In the case of CC(=O)c1nn(CC(=O)N2[C@H]3C[C@@]3(CN(C)C)C[C@H]2C(=O)Nc2nc(Br)ccc2C)c2ccc(-c3cnc(C)nc3)c(F)c12 [Compound 156, (1S,3S,5S)-2-(2-(3-Acetyl-4-fluoro-5-(2-methylpyrimidin-5-yl)-1H-indazol-1-yl)acetyl)-N-(6-bromo-3-methylpyridin-2-yl)-5-((dimethylamino)methyl)-2-azabicyclo[3.1.0]hexane-3-carboxamide], the IC50 is reported as greater than 10000 nM.
Work on CC(=O)c1nn(CC(=O)N2[C@H](C(=O)Nc3nc(Br)ccc3C)C[C@@]3(COCCN(C)C)C[C@@H]23)c2ccc(-c3cnc(C)nc3)cc12 [Compound 157] yielded an IC50 of less than 1000 nM.
CC(=O)c1nn(CC(=O)N2C[C@H]3C[C@H]3[C@H]2C(=O)Nc2nc(Br)c(F)cc2C)c2cnc(-c3cnc(C)nc3)cc12 [Compound 172, (1R,2S,5S)-3-(2-(3-Acetyl-5-(2-methylpyrimidin-5-yl)-1H-pyrazolo[3,4-c]pyridin-1-yl)acetyl)-N-(6-bromo-5-fluoro-3-methylpyridin-2-yl)-3-azabicyclo[3.1.0]hexane-2-carboxamide] was tested, and the IC50 was less than 1000 nM.
Molecule CC(=O)c1nn(CC(=O)N2[C@H](C(=O)Nc3nc(Br)ccc3C)C[C@@]3(C(N)=O)C[C@@H]23)c2c(C)cc(-c3cnc(C)nc3)cc12 [Compound 173, (1R,3S,5S)-2-(2-(3-acetyl-7-methyl-5-(2-methylpyrimidin-5-yl)-1H-indazol-1-yl)acetyl)-N3-(6-bromo-3-methylpyridin-2-yl)-2-azabicyclo[3 .1.0]hexane-3,5-dicarboxamide] has an IC50 greater than 10000 nM.
CC(=O)c1nn(CC(=O)N2[C@H](C(=O)Nc3nc(Br)ccc3C)C[C@@]3(C#N)C[C@@H]23)c2c(C)cc(-c3cnc(C)nc3)cc12 [Compound 174, (1R,3S,5S)-2-(2-(3-acetyl-7-methyl-5-(2-methylpyrimidin-5-yl)-1H-indazol-1-yl)acetyl)-N-(6-bromo-3-methylpyridin-2-yl)-5-cyano-2-azabicyclo[3.1.0]hexane-3-carboxamide] showed an IC50 greater than 10000 nM.
In the case of CC(=O)c1nn(CC(=O)N2C[C@@H](C(F)(F)F)C[C@H]2C(=O)Nc2nc(Br)ccc2C)c2c(C)cc(-c3cnc(C)nc3)cc12 [Compound 175], the IC50 is reported as less than 1000 nM.
With CC(=O)c1nn(CC(=O)N2[C@H](C(=O)Nc3nc(Br)ccc3C)C[C@@]3(CN(CCF)CCF)C[C@@H]23)c2c(C)cc(-c3cnc(C)nc3)cc12 [Compound 176] the IC50 was less than 1000 nM.
CC(=O)c1nn(CC(=O)N2[C@H](C(=O)Nc3nc(Br)ccc3CN3CC(F)(F)C3)C[C@@]3(C)C[C@@H]23)c2ccc(-c3cnc(C)nc3)cc12 [Compound 177, (1R,3S,5R)-2-(2-(3-Acetyl-5-(2-methylpyrimidin-5-yl)-1H-indazol-1-yl)acetyl)-N-(6-bromo-3-((3,3-difluoroazetidin-1-yl)methyl)pyridin-2-yl)-5-methyl-2-azabicyclo[3.1.0]hexane-3-carboxamide] showed an IC50 of less than 1000 nM.
Molecule CC(=O)c1nn(CC(=O)N2[C@H](C(=O)Nc3nc(Br)c(F)cc3C)C[C@@]3(C)C[C@@H]23)c2ccc(-c3cnc(C)nc3)cc12 [Compound 178, (1R,3S,5R)-2-(2-(3-Acetyl-5-(2-methylpyrimidin-5-yl)-1H-indazol-1-yl)acetyl)-N-(6-bromo-5-fluoro-3-methylpyridin-2-yl)-5-methyl-2-azabicyclo[3.1.0]hexane-3-carboxamide] has an IC50 of less than 1000 nM.
In the case of CC(=O)c1nn(CC(=O)N2[C@H](C(=O)Nc3nc(Br)ccc3C)C[C@@]3(C)C[C@@H]23)c2ccc(-c3cnc4cc(C)nn4c3)cc12 [Compound 180, (1R,3S,5R)-2-(2-(3-Acetyl-5-(2-methylpyrazolo[1,5-a]pyrimidin-6-yl)-1H-indazol-1-yl)acetyl)-N-(6-bromo-3-methylpyridin-2-yl)-5-methyl-2-azabicyclo[3.1.0]hexane-3-carboxamide], the IC50 is reported as less than 1000 nM.
CC(=O)c1nn(CC(=O)N2[C@H](C(=O)Nc3nc(Br)c(F)cc3C)C[C@@]3(C)C[C@@H]23)c2ncc(-c3cnc(C)nc3)cc12 [Compound 182, (1R,3S,5R)-2-(2-(3-Acetyl-5-(2-methylpyrimidin-5-yl)-1H-pyrazolo[3,4-b]pyridin-1-yl)acetyl)-N-(6-bromo-5-fluoro-3-methylpyridin-2-yl)-5-methyl-2-azabicyclo[3.1.0]hexane-3-carboxamide] showed an IC50 of less than 1000 nM.
CC(=O)c1nn(CC(=O)N2C[C@H]3C[C@H]3[C@H]2C(=O)Nc2nc(Br)ccc2C)c2ncc(-c3cnc(C)nc3)cc12 [Compound 183, (1R,2S,5S)-3-(2-(3-Acetyl-5-(2-methylpyrimidin-5-yl)-1H-pyrazolo[3,4-b]pyridin-1-yl)acetyl)-N-(6-bromo-3-methylpyridin-2-yl)-3-azabicyclo[3.1.0]hexane-2-carboxamide] gave an IC50 of less than 1000 nM.
Work on CC(=O)c1nn(CC(=O)N2[C@H](C(=O)Nc3nc(Br)ccc3C)C[C@@]3(C)C[C@@H]23)c2ccc(-c3cnc(C)nc3)nc12 [Compound 184, (1R,3S,5R)-2-(2-(3-Acetyl-5-(2-methylpyrimidin-5-yl)-1H-pyrazolo[4,3-b]pyridin-1-yl)acetyl)-N-(6-bromo-3-methylpyridin-2-yl)-5-methyl-2-azabicyclo[3.1.0]hexane-3-carboxamide] yielded an IC50 of 1000 to 10000 nM.
Work on CC(=O)c1nn(CC(=O)N2[C@H](C(=O)Nc3nc(Br)c(F)cc3C)C[C@@]3(C)C[C@@H]23)c2ccc(-c3cnc(C)nc3)nc12 [Compound 185, (1R,3S,5R)-2-(2-(3-Acetyl-5-(2-methylpyrimidin-5-yl)-1H-pyrazolo[4,3-b]pyridin-1-yl)acetyl)-N-(6-bromo-5-fluoro-3-methylpyridin-2-yl)-5-methyl-2-azabicyclo[3.1.0]hexane-3-carboxamide] yielded an IC50 of 1000 to 10000 nM.
CC(=O)c1nn(CC(=O)N2[C@H](C(=O)Nc3nc(Br)cc(C)c3C(F)F)C[C@@]3(C)C[C@@H]23)c2ccc(-c3cnc(C)nc3)cc12 [Compound 187, (1R,3S,5R)-2-(2-(3-Acetyl-5-(2-methylpyrimidin-5-yl)-1H-indazol-1-yl)acetyl)-N-(6-bromo-3-(difluoromethyl)-4-methylpyridin-2-yl)-5-methyl-2-azabicyclo[3.1.0]hexane-3-carboxamide] was tested, and the IC50 was less than 1000 nM.
In the case of C=CCCS(=O)(=O)N(C)C[C@@]12C[C@@H](C(=O)Nc3nc(Br)ccc3C=C)N(C(=O)Cn3nc(C(C)=O)c4cc(-c5cnc(C)nc5)ccc43)[C@@H]1C2 [Compound 188, (1R,3S,5R)-2-(2-(3-Acetyl-5-(2-methylpyrimidin-5-yl)-1H-indazol-1-yl)acetyl)-N-(6-bromo-3-vinylpyridin-2-yl)-5-((N-methylbut-3-en-1-ylsulfonamido)methyl)-2-azabicyclo[3.1.0]hexane-3-carboxamide], the IC50 is reported as less than 1000 nM.
With CC(=O)c1nn(CC(=O)N2[C@H](C(=O)Nc3nc(Br)ccc3CN3CCOCC3)C[C@@]3(C)C[C@@H]23)c2cnc(-c3cnc(C)nc3)cc12 [Compound 192, (1R,3S,5R)-2-(2-(3-Acetyl-5-(2-methylpyrimidin-5-yl)-1H-pyrazolo[3,4-c]pyridin-1-yl)acetyl)-N-(6-bromo-3-(morpholinomethyl)pyridin-2-yl)-5-methyl-2-azabicyclo[3.1.0]hexane-3-carboxamide] the IC50 was less than 1000 nM.
Work on COc1ncc(-c2cc3c(C(C)=O)nn(CC(=O)N4[C@H](C(=O)Nc5nc(Br)ccc5C)C[C@@]5(C)C[C@@H]45)c3cn2)cn1 [Compound 193, (1R,3S,5R)-2-(2-(3-Acetyl-5-(2-methoxypyrimidin-5-yl)-1H-pyrazolo[3,4-c]pyridin-1-yl)acetyl)-N-(6-bromo-3-methylpyridin-2-yl)-5-methyl-2-azabicyclo[3.1.0]hexane-3-carboxamide] yielded an IC50 of less than 1000 nM.
Molecule CC(=O)c1nn(CC(=O)N2[C@H](C(=O)Nc3nc(Br)ccc3C)C[C@@]3(C)C[C@@H]23)c2cnc(-c3cnc(N)nc3)cc12 [Compound 194, (1R,3S,5R)-2-(2-(3-Acetyl-5-(2-aminopyrimidin-5-yl)-1H-pyrazolo[3,4-c]pyridin-1-yl)acetyl)-N-(6-bromo-3-methylpyridin-2-yl)-5-methyl-2-azabicyclo[3.1.0]hexane-3-carboxamide] has an IC50 of less than 1000 nM.
In the case of CC(=O)c1nn(CC(=O)N2[C@H](C(=O)Nc3nc(Br)c(F)cc3C)C[C@@]3(C)C[C@@H]23)c2cnc(-c3cnc(N)nc3)cc12 [Compound 195, (1R,3S,5R)-2-(2-(3-Acetyl-5-(2-aminopyrimidin-5-yl)-1H-pyrazolo[3,4-c]pyridin-1-yl)acetyl)-N-(6-bromo-5-fluoro-3-methylpyridin-2-yl)-5-methyl-2-azabicyclo[3.1.0]hexane-3-carboxamide], the IC50 is reported as less than 1000 nM.
CC(=O)c1nn(CC(=O)N2[C@H](C(=O)Nc3nc(OC(F)(F)F)ccc3C)C[C@@]3(C)C[C@@H]23)c2ccc(-c3cnc(C)nc3)cc12 [Compound 196, (1R,3S,5R)-2-(2-(3-Acetyl-5-(2-methylpyrimidin-5-yl)-1H-indazol-1-yl)acetyl)-5-methyl-N-(3-methyl-6-(trifluoromethoxy)pyridin-2-yl)-2-azabicyclo[3.1.0]hexane-3-carboxamide] was tested, and the IC50 was less than 1000 nM.
Work on CC(=O)c1nn(CC(=O)N2[C@H](C(=O)Nc3nc(Br)ccc3C)C[C@@]3(c4cnco4)C[C@@H]23)c2ccc(-c3cnc(C)nc3)cc12 [Compound 197, (1R,3S,5S)-2-(2-(3-Acetyl-5-(2-methylpyrimidin-5-yl)-1H-indazol-1-yl)acetyl)-N-(6-bromo-3-methylpyridin-2-yl)-5-(oxazol-5-yl)-2-azabicyclo[3.1.0]hexane-3-carboxamide] yielded an IC50 of less than 1000 nM.
COc1ncc(-c2cc3c(C(C)=O)nn(CC(=O)N4[C@H](C(=O)Nc5nc(Br)c(F)cc5C)C[C@@]5(C)C[C@@H]45)c3cn2)cn1 [Compound 198, (1R,3S,5R)-2-(2-(3-Acetyl-5-(2-methoxypyrimidin-5-yl)-1H-pyrazolo[3,4-c]pyridin-1-yl)acetyl)-N-(6-bromo-5-fluoro-3-methylpyridin-2-yl)-5-methyl-2-azabicyclo[3.1.0]hexane-3-carboxamide] was tested, and the IC50 was less than 1000 nM.
